Measurements as given in patent US20040229251A1, “Detection of guanylyl and adenylyl cyclase activity” (The Regents of the University of Michigna, priority 2003, published 2004).

Experiments:
[1] = system: wild type adenylyl cyclases (ACs); conditions: addition of Mn2+ compared with Mg2+; cited from earlier work
[2] = biological target: T1, VC1 and ACGC domains (UniProt P26769+P30803, D1018C/K938E); test: guanylyl cyclase activity in the presence of Mn2+, BODIPY FL-GTPγS as substrate; type: biochemical; conditions: 5 mM Mg2+ and 5 mM Mn2+ vs 10 mM Mg2+
T1 construct: The soluble intracellular (C1 and C2) domains of adenylyl cyclase were utilized; The mutations to enhance guanylyl cyclase activity are in the C2 domain
Method: This Example describes the effect of Mn^2+ on guanylyl cyclase activity. All assays were performed at 22° C. in the presence of 2 μM BODIPY FL-GTPγS and the presence of 5 mM Mg ^2+ and 5 mM Mn^2+ or 10 mM Mg^2+ and the absence or presence of 100 μM forskolin (Fsk). Assays were performed in a 96 well, low fluorescence microtitre plate using a fluorescence plate reader. Excitation and emission wavelengths were 485 and 525 nm respectively.
The linear portion of the progress curves from data in FIG. 2B was fitted by linear regression with respect to time. The individual rates are plotted against the concentration of the VC1 domain.

[3] = biological target: T2, membrane-bound form of AC1 (adenylyl cyclase type I) expressed in sf9 cells (Homo sapiens, UniProt Q08828); test: membrane cyclase fluorescence assay; type: biochemical
T2 construct: made in house; host or cells: sf9 cells
T2 sequence (Q08828 whole entry): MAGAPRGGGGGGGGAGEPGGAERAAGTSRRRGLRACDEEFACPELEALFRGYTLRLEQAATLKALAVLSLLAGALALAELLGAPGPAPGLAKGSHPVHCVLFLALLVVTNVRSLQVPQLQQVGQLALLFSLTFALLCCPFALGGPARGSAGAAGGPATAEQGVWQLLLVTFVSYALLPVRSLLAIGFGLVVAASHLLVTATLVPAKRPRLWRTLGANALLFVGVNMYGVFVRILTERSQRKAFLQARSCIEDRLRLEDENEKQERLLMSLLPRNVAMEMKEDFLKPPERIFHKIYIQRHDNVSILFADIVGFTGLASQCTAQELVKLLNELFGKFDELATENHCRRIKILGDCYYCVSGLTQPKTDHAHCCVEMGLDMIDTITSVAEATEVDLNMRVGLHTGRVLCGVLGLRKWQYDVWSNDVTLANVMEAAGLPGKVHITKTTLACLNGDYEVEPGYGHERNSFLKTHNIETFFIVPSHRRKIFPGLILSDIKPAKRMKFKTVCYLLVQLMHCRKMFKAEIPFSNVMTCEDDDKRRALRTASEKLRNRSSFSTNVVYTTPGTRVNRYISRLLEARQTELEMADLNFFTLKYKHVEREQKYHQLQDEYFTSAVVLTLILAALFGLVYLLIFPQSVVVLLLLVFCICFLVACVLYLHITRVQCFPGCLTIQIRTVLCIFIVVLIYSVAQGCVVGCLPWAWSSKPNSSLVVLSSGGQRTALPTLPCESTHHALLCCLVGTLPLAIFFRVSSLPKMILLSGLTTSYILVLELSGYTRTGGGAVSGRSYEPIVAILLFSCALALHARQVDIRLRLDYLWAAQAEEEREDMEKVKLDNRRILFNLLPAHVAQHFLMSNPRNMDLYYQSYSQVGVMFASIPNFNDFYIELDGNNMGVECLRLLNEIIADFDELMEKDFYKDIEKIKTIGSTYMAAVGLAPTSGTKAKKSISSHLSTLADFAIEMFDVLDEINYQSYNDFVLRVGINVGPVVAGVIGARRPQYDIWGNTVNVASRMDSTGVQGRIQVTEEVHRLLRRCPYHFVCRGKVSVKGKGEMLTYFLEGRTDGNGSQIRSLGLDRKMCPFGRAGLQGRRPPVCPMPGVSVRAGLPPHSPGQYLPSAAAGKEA
Method: The activity of a membrane-bound form of AC1 (adenylyl cyclase type I) expressed in sf9 cells was measured using the fluorescence assay described above.

enhancement of the forskolin-activated rate of accumulation of BODIPY-thio-pyrophosphate ([2]; 100 μM forskolin)	effect on basal activity ([2]; absence of forskolin)	Compound	alteration of the Km for GTP [1]	effective concentration to produce the half maximal activation (EC50) [3]
over thirty-fold	enhanced basal activity significantly	[Mn+2] [Mn^2+]	at least 1000 fold	–
–	–	C=C[C@@]1(C)CC(=O)[C@]2(O)[C@@]3(C)[C@@H](O)CCC(C)(C)[C@@H]3[C@H](O)[C@H](OC(C)=O)[C@@]2(C)O1 [forskolin]	–	consistent with previously published values
